{"source": "patent US20230372273A1", "about": "“IONIC LIQUID COMPOSITIONS FOR SKIN DISEASES AND CONDITIONS” (CAGE BIO, INC., priority 2020, published 2023)", "key": {"[1]": {"settings": "cited from earlier work"}, "[2]": {"tested_on": "Propionibacterium acnes clinical isolates"}, "Recombinant human KLK5": {"target": "T1, Recombinant human KLK5 (Homo sapiens, UniProt Q9Y337)", "T1 construct": "purchased Speed Biosystems LLC YS1485", "T1 sequence (Q9Y337 23-293)": "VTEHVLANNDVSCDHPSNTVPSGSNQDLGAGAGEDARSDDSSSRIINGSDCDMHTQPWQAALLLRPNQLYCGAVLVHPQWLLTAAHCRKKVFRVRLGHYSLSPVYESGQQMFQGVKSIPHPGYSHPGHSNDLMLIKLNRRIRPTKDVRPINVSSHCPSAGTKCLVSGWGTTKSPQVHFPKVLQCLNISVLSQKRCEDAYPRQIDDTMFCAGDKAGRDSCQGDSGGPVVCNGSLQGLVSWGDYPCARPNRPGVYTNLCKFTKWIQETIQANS", "test": "hKLK5 enzymatic assay", "assay_type": "biochemical", "settings": "substrate S-2288, OD 405 nm, 37° C.; read-out: IC50 against hKLK5", "protocol": "hKLK5 Enzymatic Assay. Test compound CAGE1:2 (87.07% w/v) was diluted to 0.99 mM and control compound Aprotinin was prepared at 6 μM in di-water. A 2-fold serial dilution was then performed in di-water to generate 10 concentrations for CAGE1:2 (87.07% w/v) and 8 concentrations for Aprotinin which were 2× of the final concentrations in the reaction. Recombinant human KLK5 was purchased from Speed Biosystems LLC (Catalog No. YS1485, Lot No. 0330517, 17.2 μM). The substrate S-2288 was purchased from Diapharma Group, Inc (Catalog No. S820852, Lot No. N0889942).\nThe assay was carried out in 384-well clear bottom plate coated with 0.1% Tween 20 at 4° C. overnight and washed twice with di-water before usage. 50 μL 2× compound in water was mixed with 25 μL 4× hKLK5 enzyme (120 nM) prepared in 2× reaction buffer (100 mM Tris, pH 8.0, 200 mM NaCl, 0.2% PEG, 0.01% Tween 20, 2 mM EDTA). The enzymatic reaction was initiated by the addition of 25 μL 4× substrate S-2288 (2 mM) in 2× reaction buffer to all wells. OD 405 nm was measured every 30 seconds by SpetraMax 384 Plus at 37° C. for 1 hour."}, "[3]": {"test": "Human cadaver skin permeation (Franz cells)", "assay_type": "in vitro ADME", "protocol": "Human cadaver skin permeation evaluation. Dermatomed full thickness human cadaver skin samples, 250-350 μm, were mounted onto static Franz cells. […] Phosphate buffered saline (PBS), pH 7.4 was used as the receptor medium. CGB400 gel was applied to the stratum corneum side of the skin samples at a dose of 15 μL/cm^2 ( 15 mg/cm^2). The cells were kept in a chamber at 37 C for a period of 24 h. […] in the receptor chamber ensured that the receptor media was well mixed during this time. The receptor media was sampled at 4, 7, and 24 hours to quantify the amount of choline and geranic acid permeation. After 24 hours, the skin surface was washed before removing the stratum corneum (SC) by tape stripping. […] Following SC removal, the epidermis was separated from the dermis using a surgical sterile scalpel and the dermis was cut into pieces. Each layer was collected separately in glass vials containing 2 mL of 50:50 water:methanol mixture and was left to shake overnight to extract the choline and geranic acid. The amount of choline and geranic acid was measured using LC-MS/MS in the wash, epidermis, dermis, and the receptor medium."}}, "data": [{"compound": "CC(C)=CCC/C(C)=C/C(=O)O", "note": "[geranic acid, 3,7-dimethyl-2,6-octadienoic acid]", "values": [{"measurement": "Log P", "setting": "[1]", "value": 2.8}]}, {"compound": "Choline geranate [CAGE1:2]", "values": [{"measurement": "effective concentration for antibacterial activity", "setting": "[2]", "value": "< 0.45", "unit": "mM"}, {"measurement": "Minimum Inhibitory Concentration (MIC)", "setting": "[2]; P. acnes isolates, 48 hours", "value": "0.025-0.2 % of neat CAGE1:2"}, {"measurement": "IC50", "setting": "Recombinant human KLK5", "value": "~30", "unit": "mM"}, {"measurement": "applied dose penetrated into the dermis", "setting": "[3]", "value": "About 9.5%"}, {"measurement": "estimated epidermal CAGE concentration", "setting": "[3]", "value": "~76", "unit": "mM"}, {"measurement": "molar ratio of choline to geranic acid in the epidermis", "setting": "[3]", "value": 1.18}]}]}
